Reference: the supplement of paper PMC11451515

Tested on: NOMO1
Assay: cell viability relative to DMSO control; higher = less cytotoxic
Conditions: 48 h
Procedure, shortened: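 Viability values are per-plate percentages of DMSO wells, with background from cell-free wells. Library compounds in DMSO were pin-dosed, in an 11-point threefold series from 47 μM to 0.79 nM, onto NOMO1 or SEM (500 cells/well) or P12-Ichikawa (1000 cells/well) leukemia cells in 1536-well plates (5 μl). Those cells had been adapted for at least four passages in each medium, and CellTiter-Glo One luminescence was read after 48 h at 37°C.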

[1] = HPLM + 10% dialyzed FBS, 0.000781 µM
[2] = HPLM + 10% dialyzed FBS, 0.00234 µM
[3] = HPLM + 10% dialyzed FBS, 0.00702 µM
[4] = HPLM + 10% dialyzed FBS, 0.0211 µM
[5] = HPLM + 10% dialyzed FBS, 0.0632 µM
[6] = HPLM + 10% dialyzed FBS, 0.19 µM
[7] = HPLM + 10% dialyzed FBS, 0.569 µM
[8] = HPLM + 10% dialyzed FBS, 1.71 µM
[9] = HPLM + 10% dialyzed FBS, 5.12 µM
[10] = HPLM + 10% dialyzed FBS, 15.4 µM
[11] = HPLM + 10% dialyzed FBS, 46.1 µM
[12] = RPMI 5 mM glucose + 10% FBS, 0.000781 µM
[13] = RPMI 5 mM glucose + 10% FBS, 0.00234 µM
[14] = RPMI 5 mM glucose + 10% FBS, 0.00702 µM
[15] = RPMI 5 mM glucose + 10% FBS, 0.0211 µM
[16] = RPMI 5 mM glucose + 10% FBS, 0.0632 µM
[17] = RPMI 5 mM glucose + 10% FBS, 0.19 µM
[18] = RPMI 5 mM glucose + 10% FBS, 0.569 µM
[19] = RPMI 5 mM glucose + 10% FBS, 1.71 µM
[20] = RPMI 5 mM glucose + 10% FBS, 5.12 µM
[21] = RPMI 5 mM glucose + 10% FBS, 15.4 µM
[22] = RPMI 5 mM glucose + 10% FBS, 46.1 µM
[23] = RPMI 5 mM glucose + 10% dialyzed FBS, 0.000781 µM
[24] = RPMI 5 mM glucose + 10% dialyzed FBS, 0.00234 µM
[25] = RPMI 5 mM glucose + 10% dialyzed FBS, 0.00702 µM
[26] = RPMI 5 mM glucose + 10% dialyzed FBS, 0.0211 µM
[27] = RPMI 5 mM glucose + 10% dialyzed FBS, 0.0632 µM
[28] = RPMI 5 mM glucose + 10% dialyzed FBS, 0.19 µM
[29] = RPMI 5 mM glucose + 10% dialyzed FBS, 0.569 µM
[30] = RPMI 5 mM glucose + 10% dialyzed FBS, 1.71 µM
[31] = RPMI 5 mM glucose + 10% dialyzed FBS, 5.12 µM
[32] = RPMI 5 mM glucose + 10% dialyzed FBS, 15.4 µM
[33] = RPMI 5 mM glucose + 10% dialyzed FBS, 46.1 µM

C\C1=C(\C=C(\C#N)C(=O)N1)C2=CC=NC=C2
cell viability [1]: 98.3%
cell viability [2]: 114%
cell viability [3]: 117%
cell viability [4]: 116%
cell viability [5]: 133%
cell viability [6]: 118%
cell viability [7]: 123%
cell viability [8]: 131%
cell viability [9]: 114%
cell viability [10]: 103%
cell viability [11]: 108%
cell viability [12]: 94.7%
cell viability [13]: 108%
cell viability [14]: 110%
cell viability [15]: 104%
cell viability [16]: 109%
cell viability [17]: 111%
cell viability [18]: 106%
cell viability [19]: 127%
cell viability [20]: 103%
cell viability [21]: 97.5%
cell viability [22]: 71.5%
cell viability [23]: 112%
cell viability [24]: 108%
cell viability [25]: 119%
cell viability [26]: 118%
cell viability [27]: 115%
cell viability [28]: 114%
cell viability [29]: 120%
cell viability [30]: 115%
cell viability [31]: 114%
cell viability [32]: 110%
cell viability [33]: 81.2%

O=C1c2c(O)ccc(O)c2C(=O)c2c(NCCNCCO)ccc(NCCNCCO)c21
cell viability [1]: 95%
cell viability [2]: 113%
cell viability [3]: 127%
cell viability [4]: 131%
cell viability [5]: 120%
cell viability [6]: 124%
cell viability [7]: 29.3%
cell viability [8]: 92.4%
cell viability [9]: 27.3%
cell viability [10]: 24.3%
cell viability [11]: 5.26%
cell viability [12]: 102%
cell viability [13]: 102%
cell viability [14]: 107%
cell viability [15]: 108%
cell viability [16]: 100%
cell viability [17]: 105%
cell viability [18]: 18.5%
cell viability [19]: 110%
cell viability [20]: 18.2%
cell viability [21]: 17.2%
cell viability [22]: 4.37%
cell viability [23]: 107%
cell viability [24]: 113%
cell viability [25]: 108%
cell viability [26]: 113%
cell viability [27]: 112%
cell viability [28]: 103%
cell viability [29]: 53.2%
cell viability [30]: 107%
cell viability [31]: 20.3%
cell viability [32]: 27.1%
cell viability [33]: 3.81%

O=C(NC[C@H](O)CO)c1ccncc1Nc1ccc(I)cc1F
cell viability [1]: 94.7%
cell viability [2]: 98.5%
cell viability [3]: 90%
cell viability [4]: 93%
cell viability [5]: 82.2%
cell viability [6]: 60.9%
cell viability [7]: 53.2%
cell viability [8]: 56%
cell viability [9]: 49.2%
cell viability [10]: 38.6%
cell viability [11]: 40.4%
cell viability [12]: 103%
cell viability [13]: 101%
cell viability [14]: 111%
cell viability [15]: 90.8%
cell viability [16]: 65.2%
cell viability [17]: 61.7%
cell viability [18]: 52.6%
cell viability [19]: 51.6%
cell viability [20]: 47.6%
cell viability [21]: 37.9%
cell viability [22]: 6.49%
cell viability [23]: 88.3%
cell viability [24]: 96.1%
cell viability [25]: 93.6%
cell viability [26]: 81.1%
cell viability [27]: 72.2%
cell viability [28]: 61.9%
cell viability [29]: 52%
cell viability [30]: 49.1%
cell viability [31]: 41.6%
cell viability [32]: 38.9%
cell viability [33]: 39.3%

Cc1cnc(-c2cc(N3CCN(C(=O)CC[S+](C)(=O)[O-])CC3)ncc2Cl)c(C)c1
cell viability [1]: 96.3%
cell viability [2]: 125%
cell viability [3]: 132%
cell viability [4]: 126%
cell viability [5]: 132%
cell viability [6]: 134%
cell viability [7]: 127%
cell viability [8]: 129%
cell viability [9]: 137%
cell viability [10]: 134%
cell viability [11]: 191%

N[C@H](CSC(c1ccccc1)(c1ccccc1)c1ccccc1)C(=O)O
cell viability [1]: 108%
cell viability [2]: 114%
cell viability [3]: 133%
cell viability [4]: 135%
cell viability [5]: 116%
cell viability [6]: 108%
cell viability [7]: 115%
cell viability [8]: 125%
cell viability [9]: 120%
cell viability [10]: 129%
cell viability [11]: 99.6%
cell viability [12]: 121%
cell viability [13]: 113%
cell viability [14]: 126%
cell viability [15]: 131%
cell viability [16]: 123%
cell viability [17]: 118%
cell viability [18]: 138%
cell viability [19]: 139%
cell viability [20]: 114%
cell viability [21]: 115%
cell viability [22]: 106%
cell viability [23]: 106%
cell viability [24]: 116%
cell viability [25]: 117%
cell viability [26]: 129%
cell viability [27]: 131%
cell viability [28]: 127%
cell viability [29]: 134%
cell viability [30]: 126%
cell viability [31]: 108%
cell viability [32]: 109%
cell viability [33]: 116%

CC(N)C12CC3CC(CC(C3)C1)C2 (centres undefined)
cell viability [1]: 99.4%
cell viability [2]: 120%
cell viability [3]: 116%
cell viability [4]: 113%
cell viability [5]: 117%
cell viability [6]: 104%
cell viability [7]: 126%
cell viability [8]: 109%
cell viability [9]: 104%
cell viability [10]: 85.1%
cell viability [11]: 80.2%
cell viability [12]: 104%
cell viability [13]: 118%
cell viability [14]: 122%
cell viability [15]: 111%
cell viability [16]: 108%
cell viability [17]: 116%
cell viability [18]: 126%
cell viability [19]: 112%
cell viability [20]: 112%
cell viability [21]: 53.4%
cell viability [22]: 49.2%

COc1cc2nccc(Oc3ccc(NC(=O)NC4CC4)c(Cl)c3)c2cc1C(N)=O
cell viability [1]: 129%
cell viability [2]: 120%
cell viability [3]: 111%
cell viability [4]: 98.7%
cell viability [5]: 145%
cell viability [6]: 100%
cell viability [7]: 114%
cell viability [8]: 113%
cell viability [9]: 111%
cell viability [10]: 78.1%
cell viability [11]: 17.2%

C#C[C@]1(O)CC[C@H]2[C@@H]3CCc4cc(O)ccc4[C@H]3CC[C@@]21C
cell viability [1]: 101%
cell viability [2]: 116%
cell viability [3]: 104%
cell viability [4]: 104%
cell viability [5]: 102%
cell viability [6]: 105%
cell viability [7]: 109%
cell viability [8]: 96%
cell viability [9]: 97.9%
cell viability [10]: 68%
cell viability [11]: 51.3%
cell viability [12]: 97.7%
cell viability [13]: 93.9%
cell viability [14]: 99.9%
cell viability [15]: 95.9%
cell viability [16]: 105%
cell viability [17]: 91.9%
cell viability [18]: 87%
cell viability [19]: 91.5%
cell viability [20]: 89%
cell viability [21]: 85%
cell viability [22]: 80.4%
cell viability [23]: 97.2%
cell viability [24]: 103%
cell viability [25]: 87.4%
cell viability [26]: 101%
cell viability [27]: 99.4%
cell viability [28]: 106%
cell viability [29]: 92.4%
cell viability [30]: 78.3%
cell viability [31]: 89.1%
cell viability [32]: 71.3%
cell viability [33]: 48.4%
